According to patent US10487093B2, “Heterocyclic compounds, in particular 2-oxo-4,4,5,5,6,6,7,7-octahydrobenzoxazole derivatives, and their use as antibacterial compounds” (priority 2016, dated 2019):
Converted amounts (≈) assume the structure as drawn. Read-outs that look alike come from different tables or passages of the source.

Legend:
Type in all cases: cell-based
[1] = tested on: Bacteroides fragilis ATCC 25285; experiment: MIC against anaerobes, agar dilution (CLSI), reference strain; details: ATCC25285, agar dilution, Brucella blood agar, 35° C., 48 h, anaerobic conditions, read-out: MIC, B. fragilis ATCC 25285
[2] = tested on: strains of Prevotella melaninogenica; experiment: MIC against anaerobes, agar dilution (CLSI), clinical isolates
[3] = tested on: strains of Peptostreptococcus anaerobius; experiment: as above
[4] = tested on: Streptococcus pneumoniae ATCC 49619; experiment: MIC, broth microdilution (CLSI) versus planktonic bacteria; details: ATCC49619; Streptococcus pneumoniae ATCC 49619; 16-20 h; mode of three independent experiments; read-out: MIC, Sp ATCC 49619
[5] = tested on: Staphylococcus aureus ATCC 29213; experiment: as above; details: ATCC29213; Staphylococcus aureus ATCC 29213; 16-20 h; mode of three independent experiments; read-out: MIC, Sa ATCC 29213
[6] = tested on: strains of Parvimonas micra; experiment: MIC against anaerobes, agar dilution (CLSI), clinical isolates
[7] = tested on: strains of Bacteroides fragilis; experiment: as above
[8] = tested on: strains of Finegoldia magna; experiment: as above; details: Finegoldia magna, read-out: MIC
[9] = tested on: strains of Propionibacterium acnes; experiment: as above; details: Cutibacterium acnes
[10] = tested on: strains of Peptoniphilus harei; experiment: as above; details: Peptoniphilus harei, read-out: MIC
[11] = tested on: strains of Prevotella bivia; experiment: as above
[12] = tested on: Clostridium difficile ATCC 700057; experiment: MIC against anaerobes, agar dilution (CLSI), reference strain; details: Clostridioides difficile, ATCC700057, 48 h, read-out: MIC, C. difficile ATCC 700057
[13] = tested on: Bacteroides thetaiotaomicron ATCC 29741; experiment: microbe, parasite or virus in culture; details: ATCC29741, agar dilution, Brucella blood agar, 35° C., 48 h, anaerobic conditions, read-out: MIC, B. thetaiotaomicron ATCC
[14] = tested on: strains of Clostridium perfringens; experiment: microbe, parasite or virus in culture
[15] = tested on: strains of Bacteroides thetaiotaomicron; experiment: microbe, parasite or virus in culture

SMILES: COc1ccc2ncc(=O)n(CCN[C@@H]3CC[C@@H]4[C@@H](C3)OC(=O)N4c3ccc4c(n3)NC(=O)CO4)c2c1 [Compound 21, 1-(2-{[(3aR,6R,7aR)-2-oxo-3-{3-oxo-2H,3H,4H-pyrido[3,2-b][1,4]oxazin-6-yl}-octahydro-1,3-benzoxazol-6-yl]amino}ethyl)-7-methoxy-1,2-dihydroquinoxalin-2-one]
- MIC [1]: < 1 µg/mL
- MIC ([2]; Prevotella melaninogenica strain 1): < 1 µg/mL
- MIC ([2]; Prevotella melaninogenica strain 2): < 1 µg/mL
- MIC ([2]; Prevotella melaninogenica strain 3): < 1 µg/mL
- MIC ([2]; Prevotella melaninogenica strain 4): < 1 µg/mL
- MIC ([2]; Prevotella melaninogenica strain 5): < 1 µg/mL
- MIC ([2]; Prevotella melaninogenica strain 6): < 1 µg/mL
- MIC ([2]; Prevotella melaninogenica strain 7): < 1 µg/mL
- MIC ([2]; Prevotella melaninogenica strain 8): < 1 µg/mL
- MIC ([2]; Prevotella melaninogenica strain 9): < 1 µg/mL
- MIC ([2]; Prevotella melaninogenica strain 10): < 1 µg/mL
- MIC ([2]; Prevotella melaninogenica strain 11): < 1 µg/mL
- MIC ([3]; Peptostreptococcus anaerobius strain 1): < 1 µg/mL
- MIC ([3]; Peptostreptococcus anaerobius strain 2): < 1 µg/mL
- MIC ([3]; Peptostreptococcus anaerobius strain 3): < 1 µg/mL
- MIC ([3]; Peptostreptococcus anaerobius strain 4): < 1 µg/mL
- MIC ([3]; Peptostreptococcus anaerobius strain 5): < 1 µg/mL
- MIC ([3]; Peptostreptococcus anaerobius strain 6): < 1 µg/mL
- MIC ([3]; Peptostreptococcus anaerobius strain 7): < 1 µg/mL
- MIC ([3]; Peptostreptococcus anaerobius strain 8): < 1 µg/mL
- MIC ([3]; Peptostreptococcus anaerobius strain 9): < 1 µg/mL
- MIC ([3]; Peptostreptococcus anaerobius strain 10): < 1 µg/mL
- MIC [4]: 1 to 10 µg/mL (≈ 1.97 to 19.7 µM)
- MIC [5]: < 1 µg/mL
- MIC ([6]; Parvimonas micra strain 1): < 1 µg/mL
- MIC ([6]; Parvimonas micra strain 2): < 1 µg/mL
- MIC ([6]; Parvimonas micra strain 3): < 1 µg/mL
- MIC ([6]; Parvimonas micra strain 4): 1 to 4 µg/mL (≈ 1.97 to 7.9 µM)
- MIC ([6]; Parvimonas micra strain 5): < 1 µg/mL
- MIC ([6]; Parvimonas micra strain 6): < 1 µg/mL
- MIC ([6]; Parvimonas micra strain 7): < 1 µg/mL
- MIC ([6]; Parvimonas micra strain 8): < 1 µg/mL
- MIC ([6]; Parvimonas micra strain 9): < 1 µg/mL
- MIC ([6]; Parvimonas micra strain 10): < 1 µg/mL
- MIC ([6]; Parvimonas micra strain 11): < 1 µg/mL
- MIC ([6]; Parvimonas micra strain 12): < 1 µg/mL
- MIC ([7]; Bacteroides fragilis strain 1): 1 to 4 µg/mL (≈ 1.97 to 7.9 µM)
- MIC ([7]; Bacteroides fragilis strain 2): < 1 µg/mL
- MIC ([7]; Bacteroides fragilis strain 3): < 1 µg/mL
- MIC ([7]; Bacteroides fragilis strain 4): < 1 µg/mL
- MIC ([7]; Bacteroides fragilis strain 5): < 1 µg/mL
- MIC ([7]; Bacteroides fragilis strain 6): < 1 µg/mL
- MIC ([7]; Bacteroides fragilis strain 7): < 1 µg/mL
- MIC ([7]; Bacteroides fragilis strain 8): < 1 µg/mL
- MIC ([7]; Bacteroides fragilis strain 9): < 1 µg/mL
- MIC ([7]; Bacteroides fragilis strain 10): < 1 µg/mL
- MIC ([7]; Bacteroides fragilis strain 11): < 1 µg/mL
- MIC ([7]; Bacteroides fragilis strain 12): < 1 µg/mL
- MIC ([8]; Finegoldia magna strain 1): < 1 µg/mL
- MIC ([8]; Finegoldia magna strain 2): < 1 µg/mL
- MIC ([8]; Finegoldia magna strain 3): < 1 µg/mL
- MIC ([8]; Finegoldia magna strain 4): < 1 µg/mL
- MIC ([8]; Finegoldia magna strain 5): < 1 µg/mL
- MIC ([8]; Finegoldia magna strain 6): < 1 µg/mL
- MIC ([8]; Finegoldia magna strain 7): < 1 µg/mL
- MIC ([8]; Finegoldia magna strain 8): < 1 µg/mL
- MIC ([8]; Finegoldia magna strain 9): < 1 µg/mL
- MIC ([8]; Finegoldia magna strain 10): < 1 µg/mL
- MIC ([8]; Finegoldia magna strain 11): < 1 µg/mL
- MIC ([8]; Finegoldia magna strain 12): < 1 µg/mL
- MIC ([9]; Propionibacterium acnes strain 1): < 1 µg/mL
- MIC ([9]; Propionibacterium acnes strain 2): < 1 µg/mL
- MIC ([9]; Propionibacterium acnes strain 3): < 1 µg/mL
- MIC ([9]; Propionibacterium acnes strain 4): < 1 µg/mL
- MIC ([9]; Propionibacterium acnes strain 5): < 1 µg/mL
- MIC ([9]; Propionibacterium acnes strain 6): < 1 µg/mL
- MIC ([9]; Propionibacterium acnes strain 7): < 1 µg/mL
- MIC ([9]; Propionibacterium acnes strain 8): < 1 µg/mL
- MIC ([9]; Propionibacterium acnes strain 9): < 1 µg/mL
- MIC ([9]; Propionibacterium acnes strain 10): < 1 µg/mL
- MIC ([9]; Propionibacterium acnes strain 11): < 1 µg/mL
- MIC ([9]; Propionibacterium acnes strain 12): < 1 µg/mL
- MIC ([10]; Peptoniphilus harei strain 1): < 1 µg/mL
- MIC ([10]; Peptoniphilus harei strain 2): < 1 µg/mL
- MIC ([10]; Peptoniphilus harei strain 3): < 1 µg/mL
- MIC ([10]; Peptoniphilus harei strain 4): < 1 µg/mL
- MIC ([10]; Peptoniphilus harei strain 5): < 1 µg/mL
- MIC ([10]; Peptoniphilus harei strain 6): < 1 µg/mL
- MIC ([10]; Peptoniphilus harei strain 7): < 1 µg/mL
- MIC ([10]; Peptoniphilus harei strain 8): < 1 µg/mL
- MIC ([10]; Peptoniphilus harei strain 9): < 1 µg/mL
- MIC ([10]; Peptoniphilus harei strain 10): < 1 µg/mL
- MIC ([10]; Peptoniphilus harei strain 11): < 1 µg/mL
- MIC ([10]; Peptoniphilus harei strain 12): < 1 µg/mL
- MIC ([11]; Prevotella bivia strain 1): < 1 µg/mL
- MIC ([11]; Prevotella bivia strain 2): < 1 µg/mL
- MIC ([11]; Prevotella bivia strain 3): < 1 µg/mL
- MIC ([11]; Prevotella bivia strain 4): < 1 µg/mL
- MIC ([11]; Prevotella bivia strain 5): < 1 µg/mL
- MIC ([11]; Prevotella bivia strain 6): < 1 µg/mL
- MIC ([11]; Prevotella bivia strain 7): < 1 µg/mL
- MIC ([11]; Prevotella bivia strain 8): < 1 µg/mL
- MIC ([11]; Prevotella bivia strain 9): < 1 µg/mL
- MIC ([11]; Prevotella bivia strain 10): < 1 µg/mL
- MIC [12]: < 1 µg/mL
- MIC [13]: < 1 µg/mL
- MIC ([14]; Clostridium perfringens strain 1): < 1 µg/mL
- MIC ([14]; Clostridium perfringens strain 2): < 1 µg/mL
- MIC ([14]; Clostridium perfringens strain 3): < 1 µg/mL
- MIC ([14]; Clostridium perfringens strain 4): < 1 µg/mL
- MIC ([14]; Clostridium perfringens strain 5): < 1 µg/mL
- MIC ([14]; Clostridium perfringens strain 6): < 1 µg/mL
- MIC ([14]; Clostridium perfringens strain 7): < 1 µg/mL
- MIC ([14]; Clostridium perfringens strain 8): < 1 µg/mL
- MIC ([14]; Clostridium perfringens strain 9): < 1 µg/mL
- MIC ([14]; Clostridium perfringens strain 10): < 1 µg/mL
- MIC ([14]; Clostridium perfringens strain 11): < 1 µg/mL
- MIC ([15]; Bacteroides thetaiotaomicron strain 1, read-out: MIC): < 1 µg/mL
- MIC ([15]; Bacteroides thetaiotaomicron strain 2, read-out: MIC): < 1 µg/mL
- MIC ([15]; Bacteroides thetaiotaomicron strain 3, read-out: MIC): < 1 µg/mL
- MIC ([15]; Bacteroides thetaiotaomicron strain 4, read-out: MIC): < 1 µg/mL
- MIC ([15]; Bacteroides thetaiotaomicron strain 5, read-out: MIC): < 1 µg/mL
- MIC ([15]; Bacteroides thetaiotaomicron strain 6, read-out: MIC): < 1 µg/mL
- MIC ([15]; Bacteroides thetaiotaomicron strain 7, read-out: MIC): < 1 µg/mL
- MIC ([15]; Bacteroides thetaiotaomicron strain 8, read-out: MIC): < 1 µg/mL
- MIC ([15]; Bacteroides thetaiotaomicron strain 9, read-out: MIC): < 1 µg/mL
- MIC ([15]; Bacteroides thetaiotaomicron strain 10, read-out: MIC): < 1 µg/mL
- MIC ([15]; Bacteroides thetaiotaomicron strain 11, read-out: MIC): 1 to 4 µg/mL (≈ 1.97 to 7.9 µM)
